The source made the active and inactive calls.
How the values were obtained:
[1] = target: T1, Sentrin-specific protease 7 (Homo sapiens, UniProt Q9BQF6); type: functional;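 note: Luminescence-based dose-response confirmation of ultra-high-throughput screening hits, measuring inhibition of SENP7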
T1 sequence (Q9BQF6 whole entry): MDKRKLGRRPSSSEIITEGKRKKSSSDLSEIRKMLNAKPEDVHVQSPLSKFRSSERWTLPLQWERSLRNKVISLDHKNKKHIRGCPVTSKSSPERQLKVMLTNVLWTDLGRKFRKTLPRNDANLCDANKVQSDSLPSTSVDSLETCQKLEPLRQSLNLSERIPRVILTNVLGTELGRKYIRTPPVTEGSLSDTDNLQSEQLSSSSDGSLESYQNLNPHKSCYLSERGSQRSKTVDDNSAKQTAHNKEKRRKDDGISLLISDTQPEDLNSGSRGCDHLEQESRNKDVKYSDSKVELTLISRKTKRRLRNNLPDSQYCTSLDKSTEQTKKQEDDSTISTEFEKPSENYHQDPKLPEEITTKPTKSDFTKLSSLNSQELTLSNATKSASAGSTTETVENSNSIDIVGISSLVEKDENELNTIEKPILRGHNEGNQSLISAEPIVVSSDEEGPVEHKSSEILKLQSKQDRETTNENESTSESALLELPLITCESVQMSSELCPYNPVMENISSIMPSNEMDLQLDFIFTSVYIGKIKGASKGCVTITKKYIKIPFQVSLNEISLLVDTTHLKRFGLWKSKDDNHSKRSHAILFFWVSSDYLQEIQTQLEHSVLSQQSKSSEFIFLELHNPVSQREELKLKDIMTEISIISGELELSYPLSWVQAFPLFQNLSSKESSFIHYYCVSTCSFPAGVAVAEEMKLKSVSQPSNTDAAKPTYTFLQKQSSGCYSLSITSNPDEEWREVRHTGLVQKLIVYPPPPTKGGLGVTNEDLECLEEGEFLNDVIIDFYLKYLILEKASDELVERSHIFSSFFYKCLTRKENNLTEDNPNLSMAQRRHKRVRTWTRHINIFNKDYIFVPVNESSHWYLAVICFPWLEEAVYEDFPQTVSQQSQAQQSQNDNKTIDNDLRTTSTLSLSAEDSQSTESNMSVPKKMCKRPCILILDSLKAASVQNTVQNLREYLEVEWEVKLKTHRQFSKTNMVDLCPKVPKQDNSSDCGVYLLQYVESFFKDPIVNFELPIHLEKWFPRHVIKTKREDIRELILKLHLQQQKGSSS

[2] = target: T2, Sentrin-specific protease 8 (Homo sapiens, UniProt Q96LD8); type: functional;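 note: luminescence read-out of SENP8 inhibition, dose-response confirmation following an ultra-high-throughput screen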
T2 sequence (Q96LD8 whole entry): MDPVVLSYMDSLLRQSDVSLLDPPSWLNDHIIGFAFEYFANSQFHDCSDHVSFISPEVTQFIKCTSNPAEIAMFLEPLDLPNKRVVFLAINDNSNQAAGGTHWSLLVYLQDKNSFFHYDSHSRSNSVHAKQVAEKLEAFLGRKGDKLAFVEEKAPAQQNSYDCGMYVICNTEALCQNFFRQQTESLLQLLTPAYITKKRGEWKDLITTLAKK

Caspase-3 = target: T3, Caspase-3 (Homo sapiens, UniProt P42574); type: functional;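 note: Dose-response selectivity test against caspase-3 for candidate inhibitors of sentrin-specific proteases (SENPs)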
T3 sequence (P42574 whole entry): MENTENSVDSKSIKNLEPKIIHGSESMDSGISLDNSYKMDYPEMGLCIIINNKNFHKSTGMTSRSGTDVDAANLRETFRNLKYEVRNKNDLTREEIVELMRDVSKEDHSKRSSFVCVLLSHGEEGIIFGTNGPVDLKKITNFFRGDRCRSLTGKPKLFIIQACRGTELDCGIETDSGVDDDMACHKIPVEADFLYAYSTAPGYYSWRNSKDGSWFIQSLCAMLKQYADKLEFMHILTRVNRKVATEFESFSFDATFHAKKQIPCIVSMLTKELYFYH

Hexokinase = Hexokinase (Trypanosoma brucei, UniProt Q38C41); assay: Confirmation assay for inhibitors of Trypanosoma brucei hexokinase 1-Analogue-first series. [Related pubchem assays (depositor defined):AID1430, AID1632, AID2516, AID2560, AID2579, AID2600, AID449725, AID492951]; type: functional
[3] = target: T4, Sentrin-specific protease 6 (Homo sapiens, UniProt Q9GZR1); type: functional;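 note: Luminescence-based dose-response confirmatory assay of SENP6 inhibition, following up an ultra-high-throughput screen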
T4 sequence (Q9GZR1 whole entry): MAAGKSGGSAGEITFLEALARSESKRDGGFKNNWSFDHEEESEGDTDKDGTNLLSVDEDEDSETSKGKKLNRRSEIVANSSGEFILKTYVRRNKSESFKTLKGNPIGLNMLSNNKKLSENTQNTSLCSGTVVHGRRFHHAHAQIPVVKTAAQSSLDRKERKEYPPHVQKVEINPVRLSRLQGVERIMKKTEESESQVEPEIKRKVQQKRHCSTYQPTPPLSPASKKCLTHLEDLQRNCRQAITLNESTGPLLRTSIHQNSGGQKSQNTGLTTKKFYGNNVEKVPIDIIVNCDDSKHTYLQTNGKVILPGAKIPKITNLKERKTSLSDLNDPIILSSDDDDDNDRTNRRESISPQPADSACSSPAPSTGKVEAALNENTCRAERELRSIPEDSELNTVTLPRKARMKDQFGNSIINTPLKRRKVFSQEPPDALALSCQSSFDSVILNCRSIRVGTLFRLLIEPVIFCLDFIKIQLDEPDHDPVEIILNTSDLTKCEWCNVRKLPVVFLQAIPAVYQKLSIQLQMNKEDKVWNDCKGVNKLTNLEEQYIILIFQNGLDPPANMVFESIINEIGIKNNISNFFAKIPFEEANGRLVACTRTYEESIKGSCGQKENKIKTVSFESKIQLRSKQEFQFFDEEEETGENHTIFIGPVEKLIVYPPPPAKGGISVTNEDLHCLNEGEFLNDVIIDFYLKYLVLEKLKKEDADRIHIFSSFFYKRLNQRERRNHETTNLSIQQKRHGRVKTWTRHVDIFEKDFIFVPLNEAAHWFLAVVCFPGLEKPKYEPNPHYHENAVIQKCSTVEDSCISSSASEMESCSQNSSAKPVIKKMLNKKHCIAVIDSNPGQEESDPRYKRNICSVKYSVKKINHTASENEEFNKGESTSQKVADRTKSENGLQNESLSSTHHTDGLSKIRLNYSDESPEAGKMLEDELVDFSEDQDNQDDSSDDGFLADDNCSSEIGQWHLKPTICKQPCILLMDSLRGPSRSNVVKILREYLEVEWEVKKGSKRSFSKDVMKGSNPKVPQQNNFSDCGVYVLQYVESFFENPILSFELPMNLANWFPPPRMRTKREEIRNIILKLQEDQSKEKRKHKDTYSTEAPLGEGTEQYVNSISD

HeLa = assay: viability loss in HeLa cells – cell-based, 24 h, cherry-picked samples, cytotoxicity control, dose response (AID 504726); type: functional; details: Homo sapiens;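 note: potency for cytotoxicity as loss of luminescence signal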
Streptokinase A = target: T5, Streptokinase A (Streptococcus pyogenes serotype M1, UniProt P10520); assay: viability-normalized secreted streptokinase activity reduction – plasminogen activation absorbance, OD405, dose response (AID 1914); type: functional, Streptococcus pyogenes M1 GAS;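 note: secreted streptokinase activity via plasminogen activation per viability signal from cell pellet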
T5 sequence (P10520 whole entry): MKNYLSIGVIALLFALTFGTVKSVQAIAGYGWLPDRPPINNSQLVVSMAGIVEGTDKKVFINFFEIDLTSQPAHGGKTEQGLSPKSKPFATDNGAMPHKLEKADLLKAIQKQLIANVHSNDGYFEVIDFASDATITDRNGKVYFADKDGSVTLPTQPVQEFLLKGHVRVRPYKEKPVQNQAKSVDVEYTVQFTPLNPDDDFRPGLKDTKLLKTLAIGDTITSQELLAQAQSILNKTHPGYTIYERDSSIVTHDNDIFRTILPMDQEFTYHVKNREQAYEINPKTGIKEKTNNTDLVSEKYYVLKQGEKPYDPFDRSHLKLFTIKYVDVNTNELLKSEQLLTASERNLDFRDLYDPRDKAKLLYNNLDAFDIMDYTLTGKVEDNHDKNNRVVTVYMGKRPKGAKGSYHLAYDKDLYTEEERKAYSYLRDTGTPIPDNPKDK

Streptococcus [4] = assay: GAS UMAA2166 growth inhibition – luminescence, BacTiterGlo, counter-screen for streptokinase expression inhibitor project, dose response (AID 1915); type: functional, organism-based;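 note: potency for reduction of bacterial viability or growth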
[5] = tested on: Streptococcus sp. 'group A'; assay: Streptococcus pyogenes SK(-)GAS viability under kanamycin – luminescence, BacTiterGlo, confirmation, counter-screen for streptokinase expression inhibitor project, dose response (AID 1900); type: functional, organism-based
Streptococcus [6] = assay: Luminescence Microorganism-Based Dose Response Follow up to Identify Compounds Cytotoxic to Streptococcus. [Related pubchem assays: 1677 (Project Summary), 1915, 1914, 1902 (Retest at Dose), 1900 (Counter Screen), 1662 (Primary HTS)]; type: functional, organism-based
[7] = target: T6, Short transient receptor potential channel 4 (Mus musculus, UniProt Q9QUQ5); assay: potentiation of DAMGO-evoked TRPC4 calcium signal – cell-based, HEK293 TRPC4/mu-opioid, Fluo-4 calcium, EC20 DAMGO, dose response (AID 434941); type: functional
T6 sequence (Q9QUQ5 whole entry): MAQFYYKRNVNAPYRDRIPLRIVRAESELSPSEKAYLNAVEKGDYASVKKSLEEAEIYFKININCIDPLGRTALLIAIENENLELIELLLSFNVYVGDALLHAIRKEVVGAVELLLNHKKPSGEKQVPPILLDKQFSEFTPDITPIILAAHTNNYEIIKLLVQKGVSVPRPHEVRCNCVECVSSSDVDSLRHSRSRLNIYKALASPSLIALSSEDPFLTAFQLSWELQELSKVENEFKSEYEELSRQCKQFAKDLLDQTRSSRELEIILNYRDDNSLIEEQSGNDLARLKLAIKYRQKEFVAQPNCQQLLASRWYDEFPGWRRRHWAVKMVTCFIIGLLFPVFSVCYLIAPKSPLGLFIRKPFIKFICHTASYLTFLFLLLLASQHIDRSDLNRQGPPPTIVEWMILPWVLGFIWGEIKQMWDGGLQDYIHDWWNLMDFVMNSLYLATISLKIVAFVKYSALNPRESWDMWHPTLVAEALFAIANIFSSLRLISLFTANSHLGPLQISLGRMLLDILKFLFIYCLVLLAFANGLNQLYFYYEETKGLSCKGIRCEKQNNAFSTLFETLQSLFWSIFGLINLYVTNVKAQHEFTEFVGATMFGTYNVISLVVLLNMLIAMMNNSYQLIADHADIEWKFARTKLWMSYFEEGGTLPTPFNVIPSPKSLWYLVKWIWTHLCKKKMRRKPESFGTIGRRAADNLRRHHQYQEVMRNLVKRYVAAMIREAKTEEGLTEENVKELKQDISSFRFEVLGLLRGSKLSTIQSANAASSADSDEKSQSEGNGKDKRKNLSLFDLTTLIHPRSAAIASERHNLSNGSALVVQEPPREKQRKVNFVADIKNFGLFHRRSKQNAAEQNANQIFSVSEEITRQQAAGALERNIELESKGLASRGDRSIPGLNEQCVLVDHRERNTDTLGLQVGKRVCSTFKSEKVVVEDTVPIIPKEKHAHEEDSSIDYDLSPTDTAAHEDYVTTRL

[8] = target: Melanin-concentrating hormone receptor 1 (Homo sapiens, UniProt Q99705); assay: Fluorescence-based counterscreen for antagonists of the G-protein coupled receptor 7 (GPR7): cell-based high throughput dose response assay to identify antagonists of the melanin-concentrating hormone receptor 1 (MCHR1).; type: functional
[9] = Luminescence Cell-Based Dose Retest to Confirm Inhibitors of Cancer Stem Cells. [Related pubchem assays (depositor defined):AID2717, AID2721]; type: functional; details: Homo sapiens
[10] = reduction of Shn3 3'UTR-driven luciferase in osteoblasts – cell-based, Clone20 osteoblasts, firefly luciferase, cherry-picked, dose response (AID 624132); type: functional;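 note: firefly luciferase luminescence from reporter carrying the Shn3 3'UTR in osteoblasts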
[11] = non-specific 3'UTR reporter inhibition in Clone20-Shn3RL – cell-based, Renilla luciferase, cherry-picked, counter-screen for Shn3 inhibitor project, dose response (AID 624133); type: functional
[12] = target: Intestinal-type alkaline phosphatase (Homo sapiens, UniProt P09923); assay: Dose Response confirmation of uHTS hits from a small molecule inhibitors of human intestinal alkaline phosphatase via a luminescent assay. [Related pubchem assays (depositor defined):AID2544, AID2574]; type: functional
Sequence of Intestinal-type alkaline phosphatase (P09923 whole entry): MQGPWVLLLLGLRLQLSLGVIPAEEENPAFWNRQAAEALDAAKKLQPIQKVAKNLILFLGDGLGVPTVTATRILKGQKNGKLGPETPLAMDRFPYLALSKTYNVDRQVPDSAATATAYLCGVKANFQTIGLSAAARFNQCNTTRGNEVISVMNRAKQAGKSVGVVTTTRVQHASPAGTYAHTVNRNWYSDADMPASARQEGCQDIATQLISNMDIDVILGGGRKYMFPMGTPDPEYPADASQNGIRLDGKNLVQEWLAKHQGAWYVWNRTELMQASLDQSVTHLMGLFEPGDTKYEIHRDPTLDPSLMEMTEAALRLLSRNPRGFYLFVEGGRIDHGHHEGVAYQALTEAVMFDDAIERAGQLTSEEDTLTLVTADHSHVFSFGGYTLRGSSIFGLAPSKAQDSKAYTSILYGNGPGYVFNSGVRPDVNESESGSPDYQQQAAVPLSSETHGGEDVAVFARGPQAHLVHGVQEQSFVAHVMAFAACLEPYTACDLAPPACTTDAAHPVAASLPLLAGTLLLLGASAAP

Sequence of Hexokinase (Q38C41 whole entry): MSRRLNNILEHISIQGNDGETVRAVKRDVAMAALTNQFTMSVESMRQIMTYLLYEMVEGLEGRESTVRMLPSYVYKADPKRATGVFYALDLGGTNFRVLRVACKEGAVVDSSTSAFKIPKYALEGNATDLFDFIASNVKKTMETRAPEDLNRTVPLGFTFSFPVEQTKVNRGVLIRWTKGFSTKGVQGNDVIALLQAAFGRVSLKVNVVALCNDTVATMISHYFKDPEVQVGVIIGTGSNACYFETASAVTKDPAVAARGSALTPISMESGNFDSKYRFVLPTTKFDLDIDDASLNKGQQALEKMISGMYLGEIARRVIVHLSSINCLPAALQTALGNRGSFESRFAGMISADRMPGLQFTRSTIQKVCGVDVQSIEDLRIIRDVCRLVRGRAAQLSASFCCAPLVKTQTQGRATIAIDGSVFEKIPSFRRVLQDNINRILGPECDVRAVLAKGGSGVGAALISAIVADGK
Sequence of Melanin-concentrating hormone receptor 1 (Q99705 whole entry): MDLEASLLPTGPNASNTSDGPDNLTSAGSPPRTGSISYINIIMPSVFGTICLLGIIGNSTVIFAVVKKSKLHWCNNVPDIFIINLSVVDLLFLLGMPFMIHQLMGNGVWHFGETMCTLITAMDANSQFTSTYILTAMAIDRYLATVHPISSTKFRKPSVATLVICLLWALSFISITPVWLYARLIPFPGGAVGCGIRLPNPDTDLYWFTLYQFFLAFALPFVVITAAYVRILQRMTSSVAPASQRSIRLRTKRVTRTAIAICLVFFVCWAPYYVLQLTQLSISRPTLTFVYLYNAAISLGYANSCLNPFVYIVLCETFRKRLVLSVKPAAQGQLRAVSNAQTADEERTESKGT

Which IC50 [1] does the source give for `COc1ccc(-c2cc3ccccc3[nH]2)cc1` here?
Its IC50 is 18.2 µM (active).

And the IC50 [2]?
Its IC50 is 45.2 µM (active).

What about the IC50 (Caspase-3) of the same compound?
The IC50 was 14.1 µM (active).

What about the IC50 (Hexokinase) of the same compound?
Its IC50 is > 25 µM (inactive).

And the IC50 [3]?
The IC50 was 34.5 µM (active).

Which AC50 (HeLa) does the source give for `CCc1sc(C(=O)NNC(=O)CNC(=O)c2ccccc2F)cc1C` here?
The AC50 was 73 µM (active).

Which results are given for `Cc1noc(C)c1CSc1nc2sc(C)c(C)c2c(=O)n1C1CCCC1`?
EC50 (Streptokinase A): 3.31 µM (active); EC50 (Streptococcus [4]): > 150 µM (not active); EC50 [5]: 5.22 µM (active); EC50 (Streptococcus [6]): > 500 µM (not active)

For `COc1ccc(C(=O)Nc2cc(F)cc(F)c2O)cc1`, which IC50 (Hexokinase) is on record?
Its IC50 is > 25 µM (inactive).

With `O=C(Nc1cccc(Cl)c1)N1CCN(C/C=C/c2ccccc2)CC1` as the compound, how does the EC50 [7] read?
Its EC50 is 120 nM (active).

Which IC50 [8] does the source give for `CC(C)Cc1cc(C(=O)N2CCCC(CO)(Cc3ccc(F)cc3F)C2)[nH]n1` (stereo not drawn) here?
Its IC50 is 33 µM (not active).

For `Cc1ccc(-c2nnc(N3CCC(C)CC3)c3ccccc23)cc1C`, which AC50 [9] is on record?
The AC50 was 4.62 µM (active).

What about the EC50 [7] of the same compound?
The EC50 was 3350 nM (active).

What about the AC50 [10] of the same compound?
The AC50 was 6.41 µM (active).

And the AC50 [11]?
The AC50 was 8.42 µM (active).

For `Cc1ccc(NC(=O)c2ccncc2)cc1[N+](=O)[O-]`, which IC50 [12] is on record?
The IC50 was > 100 µM (inactive).
